Experimental data as given in patent US20100311714A1, “1H-IMIDAZO[4,5-c]QUINOLINONE COMPOUNDS” (priority 2009, published 2010).
Where two headings read alike, the source gives them in different places.

Molecular target: T1, PI3K alfa (Homo sapiens, UniProt P42336)
T1 construct: His tag (C); made in house; host or cells: baculovirus BV1075; Tn5 (Trichoplusia ni) or TiniPro insect cells
Assay: PI3K alpha kinase assay (Kinase-Glo luminescence)
Assay type: biochemical
Procedure, shortened: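 IC50 values come from a four-parameter logistic fit of percent inhibition at eight concentrations, typically 10 to 0.003 μM. Recombinant PI3Kα at 10 nM turned over 1 μM ATP with 10 μg/mL PI for 60 min at room temperature, and residual ATP was measured by Kinase-Glo.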

T1 sequence (P42336 with tags, fused parts or gaps limits assumed): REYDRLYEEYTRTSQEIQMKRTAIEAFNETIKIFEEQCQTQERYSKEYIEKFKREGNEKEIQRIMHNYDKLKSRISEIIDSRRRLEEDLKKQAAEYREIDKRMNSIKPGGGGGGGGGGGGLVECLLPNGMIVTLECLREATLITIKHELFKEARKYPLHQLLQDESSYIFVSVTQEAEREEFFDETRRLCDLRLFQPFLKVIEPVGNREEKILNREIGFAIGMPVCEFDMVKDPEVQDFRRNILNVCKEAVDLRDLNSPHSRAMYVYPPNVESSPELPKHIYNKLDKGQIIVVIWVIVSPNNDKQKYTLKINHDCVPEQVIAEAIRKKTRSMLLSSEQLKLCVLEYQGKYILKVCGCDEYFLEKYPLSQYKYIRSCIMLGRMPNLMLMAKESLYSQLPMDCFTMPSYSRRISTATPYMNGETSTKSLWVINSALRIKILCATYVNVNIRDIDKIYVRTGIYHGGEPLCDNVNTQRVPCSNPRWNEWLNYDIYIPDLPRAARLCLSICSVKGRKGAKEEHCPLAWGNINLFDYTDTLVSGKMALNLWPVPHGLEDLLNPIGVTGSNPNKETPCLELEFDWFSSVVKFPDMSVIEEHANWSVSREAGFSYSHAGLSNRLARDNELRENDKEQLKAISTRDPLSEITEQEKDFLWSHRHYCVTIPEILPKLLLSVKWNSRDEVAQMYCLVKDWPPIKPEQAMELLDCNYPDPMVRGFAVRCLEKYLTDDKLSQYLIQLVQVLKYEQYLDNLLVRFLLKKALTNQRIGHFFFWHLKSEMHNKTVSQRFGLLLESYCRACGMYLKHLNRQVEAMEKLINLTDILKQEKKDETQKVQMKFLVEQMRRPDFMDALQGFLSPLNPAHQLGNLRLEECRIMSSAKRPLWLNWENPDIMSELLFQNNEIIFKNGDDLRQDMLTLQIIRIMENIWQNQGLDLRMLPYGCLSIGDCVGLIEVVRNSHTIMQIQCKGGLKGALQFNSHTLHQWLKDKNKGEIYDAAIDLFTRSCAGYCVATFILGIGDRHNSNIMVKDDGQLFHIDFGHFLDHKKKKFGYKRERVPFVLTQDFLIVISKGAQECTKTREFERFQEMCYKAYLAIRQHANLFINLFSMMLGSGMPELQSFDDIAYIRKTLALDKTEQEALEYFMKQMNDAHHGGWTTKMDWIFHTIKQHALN

Row | IC50 (read-out: EPK_PI3Kalfa/IC50) | IC50 (read-out: PI3Kalfa/IC50) | Compound
1 | 11 nM | – | COCCOc1cc(-c2ccc3ncc4c(c3c2)n(-c2ccc(OC)nc2OC)c(=O)n4C)cnc1C [Example 8.9, 1-(2,6-Dimethoxy-pyridin-3-yl)-8-[5-(2-methoxy-ethoxy)-6-methyl-pyridin-3-yl]-3-methyl-1,3-dihydro-imidazo[4,5-c]quinolin-2-one]
2 | 16 nM | – | COc1ccc(-n2c(=O)n(C)c3cnc4ccc(-c5cnc(CO)c(OC)c5)cc4c32)c(C)n1 [Example 11.8, 8-(6-Hydroxymethyl-5-methoxy-pyridin-3-yl)-1-(6-methoxy-2-methyl-pyridin-3-yl)-3-methyl-1,3-dihydro-imidazo[4,5-c]quinolin-2-one]
3 | 43 nM | – | CCOc1ccc(-c2ccc3ncc4c(c3c2)n(-c2ccc(C)nc2C)c(=O)n4C)cn1 [Example 14.2, 1-(2,6-Dimethyl-pyridin-3-yl)-8-(6-ethoxy-pyridin-3-yl)-3-methyl-1,3-dihydro-imidazo[4,5-c]quinolin-2-one]
4 | 171 nM | – | COCCOc1ccc(-n2c(=O)n(C)c3cnc4ccc(-c5cncc(N6CCC6)c5)cc4c32)c(C)n1 [Example 22.2, 8-(5-Azetidin-1-yl-pyridin-3-yl)-1-[6-(2-methoxy-ethoxy)-2-methyl-pyridin-3-yl]-3-methyl-1,3-dihydro-imidazo[4,5-c]quinolin-2-one]
5 | 27 nM | – | Cc1cc(F)ncc1-n1c(=O)n(C)c2cnc3ccc(-c4cnc5c(ccn5C)c4)cc3c21 [Example 16.5, 1-(6-Fluoro-4-methyl-pyridin-3-yl)-3-methyl-8-(1-methyl-1H-pyrrolo[2,3-b]pyridin-5-yl)-1,3-dihydro-imidazo[4,5-c]quinolin-2-one]
6 | 23 nM | – | COCCN(C)c1ccc(-n2c(=O)n(C)c3cnc4ccc(-c5cnc(CO)c(OC)c5)cc4c32)c(C)n1 [Example 15.9, 8-(6-Hydroxymethyl-5-methoxy-pyridin-3-yl)-1-{6-[(2-methoxy-ethyl)-methyl-amino]-2-methyl-pyridin-3-yl}-3-methyl-1,3-dihydro-imidazo[4,5-c]quinolin-2-one]
7 | 43 nM | – | CNc1ncc(-c2ccc3ncc4c(c3c2)n(-c2ccc(OCCOC)nc2C)c(=O)n4C)cn1 [Example 13.5, 1-[6-(2-Methoxy-ethoxy)-2-methyl-pyridin-3-yl]-3-methyl-8-(2-methylamino-pyrimidin-5-yl)-1,3-dihydro-imidazo[4,5-c]quinolin-2-one]
8 | 35 nM | – | CNc1ccc(-c2ccc3ncc4c(c3c2)n(-c2ccc(N3CCCC3)nc2C)c(=O)n4C)cn1 [Example 25.1, 3-Methyl-8-(6-methylamino-pyridin-3-yl)-1-(2-methyl-6-pyrrolidin-1-yl-pyridin-3-yl)-1,3-dihydro-imidazo[4,5-c]quinolin-2-one]
9 | 11 nM | – | CNC(=O)c1cc(-c2ccc3ncc4c(c3c2)n(-c2ccc(F)nc2C)c(=O)n4C)cnc1N [Example 7.14, 2-Amino-5-[1-(6-fluoro-2-methyl-pyridin-3-yl)-3-methyl-2-oxo-2,3-dihydro-1H-imidazo[4,5-c]quinolin-8-yl]-N-methyl-nicotinamide]
10 | < 3 nM | – | CCNc1cc(-c2ccc3ncc4c(c3c2)n(-c2ccc(OC)nc2C)c(=O)n4C)cnc1C [Example 11.7, 8-(5-Ethylamino-6-methyl-pyridin-3-yl)-1-(6-methoxy-2-methyl-pyridin-3-yl)-3-methyl-1,3-dihydro-imidazo[4,5-c]quinolin-2-one]
11 | – | 134 nM | COc1ncccc1-n1c(=O)n(C)c2cnc3ccc(-c4cnc5c(ccn5C)c4)cc3c21 [Example 1.7, 1-(2-Methoxy-pyridin-3-yl)-3-methyl-8-(1-methyl-1H-pyrrolo[2,3-b]pyridin-5-yl)-1,3-dihydro-imidazo[4,5-c]quinolin-2-one]
12 | 39 nM | – | CNc1ncc(-c2ccc3ncc4c(c3c2)n(-c2ccc(N(C)CCOC)nc2C)c(=O)n4C)cn1 [Example 15.2, 1-{6-[(2-Methoxy-ethyl)-methyl-amino]-2-methyl-pyridin-3-yl}-3-methyl-8-(2-methylamino-pyrimidin-5-yl)-1,3-dihydro-imidazo[4,5-c]quinolin-2-one]
13 | 14 nM | – | Cc1cc(F)ncc1-n1c(=O)n(C)c2cnc3ccc(-c4cnc(N)c(C(F)(F)F)c4)cc3c21 [Example 16.1, 8-(6-Amino-5-trifluoromethyl-pyridin-3-yl)-1-(6-fluoro-4-methyl-pyridin-3-yl)-3-methyl-1,3-dihydro-imidazo[4,5-c]quinolin-2-one]
14 | 15 nM | – | CCNc1cc(-c2ccc3ncc4c(c3c2)n(-c2ccc(N(C)CC)nc2C)c(=O)n4C)cnc1C [Example 12.2, 8-(5-Ethylamino-6-methyl-pyridin-3-yl)-1-[6-(ethyl-methyl-amino)-2-methyl-pyridin-3-yl]-3-methyl-1,3-dihydro-imidazo[4,5-c]quinolin-2-one]
15 | 39 nM | – | CNc1ccc(-c2ccc3ncc4c(c3c2)n(-c2ccc(NC(=O)COC)nc2C)c(=O)n4C)cn1 [Example 20.4, 2-Methoxy-N-{6-methyl-5-[3-methyl-8-(6-methylamino-pyridin-3-yl)-2-oxo-2,3-dihydro-imidazo[4,5-c]quinolin-1-yl]-pyridin-2-yl}-acetamide]
16 | 59 nM | – | CCOCc1cc(-c2ccc3ncc4c(c3c2)n(-c2ccc(F)nc2C)c(=O)n4C)cnc1N [Example 7.15, 8-(6-Amino-5-ethoxymethyl-pyridin-3-yl)-1-(6-fluoro-2-methyl-pyridin-3-yl)-3-methyl-1,3-dihydro-imidazo[4,5-c]quinolin-2-one]
17 | 71 nM | – | CNc1ncc(-c2ccc3ncc4c(c3c2)n(-c2cnc(F)cc2C)c(=O)n4C)cn1 [Example 16.3, 1-(6-Fluoro-4-methyl-pyridin-3-yl)-3-methyl-8-(2-methylamino-pyrimidin-5-yl)-1,3-dihydro-imidazo[4,5-c]quinolin-2-one]
18 | 65 nM | – | Cc1nc(N(C)C)ccc1-n1c(=O)n(C)c2cnc3ccc(-c4cncc(N)c4)cc3c21 [Example 19.5, 8-(5-Amino-pyridin-3-yl)-1-(6-dimethylamino-2-methyl-pyridin-3-yl)-3-methyl-1,3-dihydro-imidazo[4,5-c]quinolin-2-one]
19 | 20 nM | – | CCNc1cc(-c2ccc3ncc4c(c3c2)n(-c2ccc(F)nc2C)c(=O)n4C)cnc1CO [Example 7.9, 8-(5-Ethylamino-6-hydroxymethyl-pyridin-3-yl)-1-(6-fluoro-2-methyl-pyridin-3-yl)-3-methyl-1,3-dihydro-imidazo[4,5-c]quinolin-2-one]
20 | 41 nM | – | COCc1ncc(-c2ccc3ncc4c(c3c2)n(-c2ccc(OC)nc2OC)c(=O)n4C)cc1OC [Example 8.12, 1-(2,6-Dimethoxy-pyridin-3-yl)-8-(5-methoxy-6-methoxymethyl-pyridin-3-yl)-3-methyl-1,3-dihydro-imidazo[4,5-c]quinolin-2-one]
21 | 40 nM | – | COCC(=O)Nc1ccc(-n2c(=O)n(C)c3cnc4ccc(-c5cncc(OC(C)C)c5)cc4c32)c(C)n1 [Example 20.5, N-{5-[8-(5-Isopropoxy-pyridin-3-yl)-3-methyl-2-oxo-2,3-dihydro-imidazo[4,5-c]quinolin-1-yl]-6-methyl-pyridin-2-yl}-2-methoxy-acetamide]
22 | 50 nM | – | COCC(=O)Nc1ccc(-n2c(=O)n(C)c3cnc4ccc(-c5cncc(N)c5)cc4c32)c(C)n1 [Example 20.1, N-{5-[8-(5-Amino-pyridin-3-yl)-3-methyl-2-oxo-2,3-dihydro-imidazo[4,5-c]quinolin-1-yl]-6-methyl-pyridin-2-yl}-2-methoxy-acetamide]
23 | 17 nM | – | CNc1cc(-c2ccc3ncc4c(c3c2)n(-c2ccc(F)nc2C)c(=O)n4C)cnc1CO [Example 7.11, 1-(6-Fluoro-2-methyl-pyridin-3-yl)-8-(6-hydroxymethyl-5-methylamino-pyridin-3-yl)-3-methyl-1,3-dihydro-imidazo[4,5-c]quinolin-2-one]
24 | 140 nM | – | Cc1ccc(-n2c(=O)n(C)c3cnc4ccc(-c5cnc(N(C)C)nc5)cc4c32)c(C)n1 [Example 14.3, 8-(2-Dimethylamino-pyrimidin-5-yl)-1-(2,6-dimethyl-pyridin-3-yl)-3-methyl-1,3-dihydro-imidazo[4,5-c]quinolin-2-one]
25 | 123 nM | – | CNc1ncc(-c2ccc3ncc4c(c3c2)n(-c2ccc(NC(=O)COC)nc2C)c(=O)n4C)cn1 [Example 20.3, 2-Methoxy-N-{6-methyl-5-[3-methyl-8-(2-methylamino-pyrimidin-5-yl)-2-oxo-2,3-dihydro-imidazo[4,5-c]quinolin-1-yl]-pyridin-2-yl}-acetamide]
26 | 162 nM | – | CCOc1ccc(-c2ccc3ncc4c(c3c2)n(-c2ccc(NC(=O)COC)nc2C)c(=O)n4C)cn1 [Example 20.2, N-{5-[8-(6-Ethoxy-pyridin-3-yl)-3-methyl-2-oxo-2,3-dihydro-imidazo[4,5-c]quinolin-1-yl]-6-methyl-pyridin-2-yl}-2-methoxy-acetamide]
27 | 14 nM | – | CNc1cc(-c2ccc3ncc4c(c3c2)n(-c2ccc(N(C)C)nc2C)c(=O)n4C)cnc1C [Example 19.2, 1-(6-Dimethylamino-2-methyl-pyridin-3-yl)-3-methyl-8-(6-methyl-5-methylamino-pyridin-3-yl)-1,3-dihydro-imidazo[4,5-c]quinolin-2-one]
28 | 15 nM | – | COc1nc(N2CCNCC2)ccc1-n1c(=O)n(C)c2cnc3ccc(-c4cnc(N(C)C)nc4)cc3c21 [Example 9.4, 8-(2-Dimethylamino-pyrimidin-5-yl)-1-(2-methoxy-6-piperazin-1-yl-pyridin-3-yl)-3-methyl-1,3-dihydro-imidazo[4,5-c]quinolin-2-one]
29 | 81 nM | – | CCOc1cc(-c2ccc3ncc4c(c3c2)n(-c2cccnc2C)c(=O)n4C)cnc1C [Example 2.22, 8-(5-Ethoxy-6-methyl-pyridin-3-yl)-3-methyl-1-(2-methyl-pyridin-3-yl)-1,3-dihydro-imidazo[4,5-c]quinolin-2-one]
30 | 64 nM | – | Cc1nc(F)ccc1-n1c(=O)n(C)c2cnc3ccc(-c4cnc(N)c(CO)c4)cc3c21 [Example 7.17, 8-(6-Amino-5-hydroxymethyl-pyridin-3-yl)-1-(6-fluoro-2-methyl-pyridin-3-yl)-3-methyl-1,3-dihydro-imidazo[4,5-c]quinolin-2-one]
